From US20140086901A1, “Inhibition of Post-Radiation Tumor Growth” (The Board of Trustees of the Leland Stanford Junior …, priority 2008, published 2014)
Like-named read-outs stand apart in the source and are kept apart here.

What was measured:
glioblastoma tumors = test: Intracranial glioblastoma tumor growth with or without irradiation (bioluminescence imaging); type: in vivo, mouse
Experimental: Tumor growth was analyzed by using an IVIS in vivo imaging system (Caliper Life Sciences, Hopkinton, Mass.) to monitor the bioluminescence imaging of brain tumor.
AMD3100 (Sigma-Aldrich) was prepared in sterile saline.
After tumor inoculation on brain, carragenan treatment was done every five days.

[1] = mouse, in vivo
[2] = tested on: CD45+CD11b+ and CD45+F4/80+ cells; test: Immunostaining of brain samples for BM-derived myelomonocytic cells in glioblastoma tumors; type: in vivo, mouse; settings: irradiation plus drug; harvested 18 days after irradiation
Excerpt: Primary antibodies for immunofluorescent staining included a rat monoclonal CD31/PECAM-1 (MEC13.3; BD Pharmingen, San Diego, Calif.), a rabbit polyclonal GFP antibody (Invitrogen, Eugene, Oreg.), a rabbit polyclonal MMP-9 (Abeam, Cambridge, Mass.), a biotinylated CD11b/macrophage-associated antigen-1α (M1/70; BD Pharmingen), a biotinylated CD11c (HL3; BD Pharmingen), a biotinylated Gr-1/Ly-6C (RB6-8C5; BD Pharmingen), rat monoclonal F4/80 (A3-1, Gnetex, Irvine, Calif.), and CD45 (BD Pharmingen). Anti phosphorylated CXCR-4 polyclonal antibody was obtained from Dr. J B Rubbin at Washington University.
Unless otherwise indicated, […] frozen sections of tumors were dried in air, hydrated with PBS, blocked with 5% goat serum in PBS (containing 0.03% Triton X-100) for 30 min, and incubated with primary antibodies for 2 hr at room temperature (RT). Sections were washed three times in PBS, followed by secondary antibody for 1 hr at RT. For glioblastomas, 5 μm frozen sections of tumors were dried in air, hydrated with PBS, blocked with 5% goat serum in PBS (containing 0.03% Triton X-100) for 30 min, and incubated with primary antibodies over night at 4° C. Sections were washed three times in PBS, followed by secondary antibody for 40 min at room temperature. […]

[3] = Body weight monitoring during drug treatment to assess side effects; settings: for loss in body weight during treatment: mice
MT1A2 tumors = test: MT1A2 tumor growth on pre-irradiated tissues of BM-transplanted mice; settings: 100 μg/kg intraperitoneally once per day for up to 6 weeks

carrageenan
growth of irradiated tumors (glioblastoma tumors; treated 1, 3 and 7 days prior to implantation, then every five days, 15 Gy on day 26): significantly inhibited | loss in body weight during treatment [1]: did not show any significant loss in the weight

N#Cc1ccc(/C=C/C(=O)O)cc1 [NSC-134754]
post-irradiation tumor growth (glioblastoma tumors; irradiation on day 20 plus drug daily for three weeks): decreased post-irradiation tumor growth | CD45+CD11b+ cells in glioblastoma tumors [2]: absence | CD45+F4/80+ cells in glioblastoma tumors [2]: absence | loss in body weight during treatment [3]: did not show any significant loss in the weight

O=P(O)(O)C(O)(Cn1ccnc1)P(=O)(O)O [ZA, aminobisphosphonate zolendronic acid]
tumor growth on the irradiated site (MT1A2 tumors; MMP-9 KO+WT BM mice): significant inhibition of tumor growth | tumor growth on pre-irradiated tissues (MT1A2 tumors; WT+KO BM mice): no effect on tumor growth | loss in weight during treatment ([3]; treated every day): less than 10 % of body weight

c1cc(CN2CCCNCCNCCCNCC2)ccc1CN1CCCNCCNCCCNCC1 [AMD3100]
growth of irradiated tumors (glioblastoma tumors; early tumor model, 2 Gy five times from day 11, drug for three weeks): significantly inhibited | growth of irradiated tumors (glioblastoma tumors; late tumor model, 15 Gy on day 21, drug for three weeks): significantly inhibited | loss in body weight during treatment [3]: did not show any significant loss in the weight
